Measured values: ChEMBL document CHEMBL4043296 (J Med Chem, 2018)

Experiments:
[1] = biological target: T1, Muscarinic acetylcholine receptor M1 (Homo sapiens) (UniProt P11229); assay: (§1) Antagonist activity at human SP/Myc epitope-tagged muscarinic M1 receptor expressed in HEK293T cells assessed as inhibition of carbachol-induced mVenus-fused beta-arrestin2 recruitment preincubated for 15 mins followed by carbachol induction measured after 2 mins by BRET assay; type: cell-based; settings: HEK-293T
T1 sequence (whole entry): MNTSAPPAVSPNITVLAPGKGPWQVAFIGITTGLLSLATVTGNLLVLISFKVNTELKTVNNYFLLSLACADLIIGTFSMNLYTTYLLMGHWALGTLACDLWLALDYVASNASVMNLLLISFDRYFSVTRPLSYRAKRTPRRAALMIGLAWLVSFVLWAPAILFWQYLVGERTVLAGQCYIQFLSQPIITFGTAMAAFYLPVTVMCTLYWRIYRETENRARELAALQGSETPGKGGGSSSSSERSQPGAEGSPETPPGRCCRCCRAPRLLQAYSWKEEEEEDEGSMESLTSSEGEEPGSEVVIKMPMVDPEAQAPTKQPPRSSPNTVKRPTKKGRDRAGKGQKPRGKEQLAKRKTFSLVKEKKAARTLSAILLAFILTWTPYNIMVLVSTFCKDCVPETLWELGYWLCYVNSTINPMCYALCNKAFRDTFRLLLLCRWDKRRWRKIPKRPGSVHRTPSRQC

[2] = biological target: T2, Muscarinic acetylcholine receptor M1 (Homo sapiens, UniProt P11229); assay: as §1; type: cell-based, HEK-293T
T2 sequence (P11229 whole entry): T1 sequence (whole entry)

[3] = biological target: Sodium-dependent serotonin transporter (Rattus norvegicus, UniProt P31652); assay: Displacement of [3H]-citalopram from SERT in Sprague-Dawley rat midbrain after 60 mins by scintillation counting method
[4] = Half life in CD1 mouse brain at 3 mg/kg, sc by UPLC-MS analysis; type: ADME, organism-based
Plasma = assay: fAUClast in CD1 mouse plasma at 3 mg/kg, sc by UPLC-MS analysis; type: ADME, organism-based; settings: in vivo
[5] = biological target: T2, Muscarinic acetylcholine receptor M1; assay: Displacement of [3H]NMS from human muscarinic M1 receptor expressed in CHO cell membranes after 2 hrs by liquid scintillation counting method
[6] = Tmax in CD1 mouse brain at 3 mg/kg, sc by UPLC-MS analysis; type: ADME, organism-based
MDR1 = assay: Apparent passive permeability across basolateral to apical side in MDCK2 cells expressing MDR1 at 3 uM after 60 mins by mass spectroscopy; type: ADME, cell-based, Canis lupus familiaris, MDCK-II; settings: dog, MDCK-MDR1
[7] = biological target: T3, Muscarinic acetylcholine receptor M4 (Homo sapiens, UniProt P08173); assay: Displacement of [3H]NMS from human muscarinic M4 receptor expressed in CHO cell membranes after 2 hrs by liquid scintillation counting method
T3 sequence (P08173 whole entry): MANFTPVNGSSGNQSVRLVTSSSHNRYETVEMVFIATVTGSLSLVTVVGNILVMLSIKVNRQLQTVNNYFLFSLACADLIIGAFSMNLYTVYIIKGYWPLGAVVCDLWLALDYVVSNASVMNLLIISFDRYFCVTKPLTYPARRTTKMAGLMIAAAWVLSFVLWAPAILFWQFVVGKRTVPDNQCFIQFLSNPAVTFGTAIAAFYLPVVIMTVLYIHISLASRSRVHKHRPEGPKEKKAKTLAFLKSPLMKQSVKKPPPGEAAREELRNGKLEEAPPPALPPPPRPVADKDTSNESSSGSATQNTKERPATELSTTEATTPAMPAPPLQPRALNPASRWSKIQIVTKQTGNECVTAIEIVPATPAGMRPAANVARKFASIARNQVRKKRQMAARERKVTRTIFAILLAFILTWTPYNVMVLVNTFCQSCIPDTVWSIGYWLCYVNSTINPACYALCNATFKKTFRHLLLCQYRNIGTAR

[8] = Ratio of AUC in CD1 mouse brain to AUC in CD1 mouse plasma at 3 mg/kg, sc; type: ADME, organism-based; settings: read-out: Ratio AUC
[9] = AUClast in CD1 mouse brain at 3 mg/kg, sc by UPLC-MS analysis; type: ADME, organism-based; set-up: dose 3 mg/kg, time 0 - last, route subcutaneous
[10] = Cmax in CD1 mouse brain at 3 mg/kg, sc after 0.25 hrs by UPLC-MS analysis; type: ADME, organism-based; set-up: dose 3 mg/kg, route subcutaneous
[11] = biological target: T4, Muscarinic acetylcholine receptor M5 (Homo sapiens, UniProt P08912); assay: Displacement of [3H]NMS from human muscarinic M5 receptor expressed in CHO cell membranes after 2 hrs by liquid scintillation counting method
T4 sequence (P08912 whole entry): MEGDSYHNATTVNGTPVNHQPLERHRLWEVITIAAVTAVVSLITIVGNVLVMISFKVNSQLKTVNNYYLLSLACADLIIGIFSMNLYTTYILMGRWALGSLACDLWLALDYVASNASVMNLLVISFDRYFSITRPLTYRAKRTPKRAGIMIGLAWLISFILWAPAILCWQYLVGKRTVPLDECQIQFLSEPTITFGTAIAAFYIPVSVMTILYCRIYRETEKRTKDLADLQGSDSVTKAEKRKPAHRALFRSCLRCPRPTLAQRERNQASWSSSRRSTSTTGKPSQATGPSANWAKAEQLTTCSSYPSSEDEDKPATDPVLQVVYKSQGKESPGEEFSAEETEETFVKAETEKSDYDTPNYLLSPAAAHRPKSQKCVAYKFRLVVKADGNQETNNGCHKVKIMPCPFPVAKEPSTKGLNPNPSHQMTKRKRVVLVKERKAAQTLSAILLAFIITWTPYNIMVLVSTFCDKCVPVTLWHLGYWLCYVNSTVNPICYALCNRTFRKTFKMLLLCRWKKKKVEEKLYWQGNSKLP

[12] = Tmax in CD1 mouse plasma at 3 mg/kg, sc by UPLC-MS analysis; type: ADME, organism-based
[13] = Ratio of fAUC in CD1 mouse brain to fAUC in CD1 mouse plasma at 3 mg/kg, sc; type: ADME, organism-based; settings: read-out: K(p,uu,brain)
[14] = biological target: T1, Muscarinic acetylcholine receptor M1 (Homo sapiens); assay: Agonist activity at human SP/Myc epitope-tagged muscarinic M1 receptor expressed in HEK293T cells assessed as RLuc8-fused Galphaq activation after 2 mins by BRET assay relative to carbachol; type: cell-based; settings: HEK-293T
[15] = Half life in CD1 mouse plasma at 3 mg/kg, sc by UPLC-MS analysis; type: ADME, organism-based
[16] = AUClast in CD1 mouse plasma at 3 mg/kg, sc by UPLC-MS analysis; type: ADME, organism-based; set-up: dose 3 mg/kg, route subcutaneous, time 0 - last
[17] = Cmax in CD1 mouse plasma at 3 mg/kg, sc after 0.25 hrs by UPLC-MS analysis; type: ADME, organism-based; set-up: dose 3 mg/kg, route subcutaneous
Brain = assay: fAUClast in CD1 mouse brain at 3 mg/kg, sc by UPLC-MS analysis; type: ADME, organism-based; settings: in vivo
[18] = biological target: T1, Muscarinic acetylcholine receptor M1 (Homo sapiens); assay: (§2) Antagonist activity at human SP/Myc epitope-tagged muscarinic M1 receptor expressed in HEK293T cells assessed as inhibition of carbachol-induced RLuc8-fused Galphaq activation preincubated for 15 mins followed by carbachol induction measured after 2 mins by BRET assay; type: cell-based; settings: HEK-293T
[19] = biological target: T2, Muscarinic acetylcholine receptor M1; assay: as §2; type: cell-based, HEK-293T
[20] = biological target: T3, Muscarinic acetylcholine receptor M4; assay: (§3) Antagonist activity at human SP/Myc epitope-tagged muscarinic M4 receptor expressed in HEK293T cells assessed as inhibition of carbachol-induced RLuc8-fused Galphaq activation preincubated for 15 mins followed by carbachol induction measured after 2 mins by BRET assay; type: cell-based, HEK-293T
[21] = biological target: T5, Muscarinic acetylcholine receptor M4 (Homo sapiens) (UniProt P08173); assay: as §3; type: cell-based; settings: HEK-293T
T5 sequence (whole entry): T3 sequence (P08173 whole entry)

Sodium-dependent serotonin transporter, sequence (P31652 whole entry): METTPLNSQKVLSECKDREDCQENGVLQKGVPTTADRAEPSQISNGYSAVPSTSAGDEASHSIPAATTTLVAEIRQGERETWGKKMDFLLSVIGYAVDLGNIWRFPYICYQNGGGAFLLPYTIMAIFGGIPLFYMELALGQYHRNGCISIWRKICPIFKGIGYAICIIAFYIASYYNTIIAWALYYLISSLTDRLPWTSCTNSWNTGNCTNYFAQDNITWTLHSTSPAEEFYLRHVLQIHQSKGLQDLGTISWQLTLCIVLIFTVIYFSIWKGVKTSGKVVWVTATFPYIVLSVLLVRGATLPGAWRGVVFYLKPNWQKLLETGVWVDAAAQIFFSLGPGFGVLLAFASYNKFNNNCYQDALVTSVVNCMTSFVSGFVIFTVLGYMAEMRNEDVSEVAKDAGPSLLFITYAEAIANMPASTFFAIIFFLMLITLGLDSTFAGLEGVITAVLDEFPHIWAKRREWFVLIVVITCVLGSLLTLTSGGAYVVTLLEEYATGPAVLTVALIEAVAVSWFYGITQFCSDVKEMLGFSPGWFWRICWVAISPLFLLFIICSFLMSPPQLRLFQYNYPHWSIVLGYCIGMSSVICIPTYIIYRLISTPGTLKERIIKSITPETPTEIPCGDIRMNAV

## O=C1CCc2ccccc2N1CCCN1CCN(c2ccccc2)CC1
[1]
  Imax: 53%
[2]
  IC50: 0.832 µM
[3]
  Ki: 5.01 µM
[4]
  half-life: 55.8 min
Plasma
  fAUClast: 50.5 ng·h/mL
[5]
  Ki: 4.27 µM
[6]
  Tmax: 15 min
MDR1
  Papp B→A at 1 h, 3 µM: 19.7 ×10⁻⁶ cm/s
[7]
  Ki: 9.33 µM
[8]
  Kp: 4.35
[9]
  AUC(0-t): 2380 ng·h/mL
[10]
  Cmax: 2050 ng/g
[11]
  Ki: 27.5 µM
[12]
  Tmax: 15 min
[13]
  Kp uu: 4.05
[14]
  Emax: 42%
[15]
  half-life: 46.2 min
[16]
  AUC(0-t): 518 ng·h/mL
[17]
  Cmax: 481 ng/mL
Brain
  fAUClast: 204 ng·h/mL

## O=C1CCc2ccccc2N1CCCN1CCC(Cc2ccccc2)CC1
[18]
  Imax: 44%
[19]
  IC50: 2.63 µM
[1]
  Imax: 71%
[2]
  IC50: 1.2 µM
[3]
  Ki: 0.0468 µM
[5]
  Ki: 0.363 µM
MDR1
  Papp B→A at 1 h, 3 µM: 20.9 ×10⁻⁶ cm/s
[7]
  Ki: 0.724 µM
[11]
  Ki: 3.72 µM
[14]
  Emax: 25%
[20]
  IC50: 8.51 µM
[21]
  Imax: 66%
